According to patent publication US11215608B2, “Methods of determining cellular chemosensitivity” (Dana-Farber Cancer Institute, Inc., priority 2006, dated 2022):
pEC50: −log10 of the molar value. Ends that are not written are not given here. Peptide text beside a SMILES is read from it. * marks the point of attachment. Cbz = O=C(OCc1ccccc1)*; CH2F = FC*

Legend:
[1] = tested on: mitochondria from FL5.12 cells; test: Cytochrome c release from FL5.12 mitochondria; type: biochemical, murine
Method: (§1) Mitochondria were purified from liver and FL5.12cells as previously described (Letai et al., 2002). Mitochondria were purified from leukemia cells and 2B4 cells as previously described for FL5.12 cells. Mitochondria were incubated with treatments for 45 (mouse liver mitochondria) or 35 minutes (FL5.12, 2B4, and leukemic mitochondria). Release of cytochrome c was determined by a comparison of cytochrome c in the pellet and supernatant following treatment, quantitated by ELISA (R&D systems).
Mitochondria were isolated from wt FL5.12 cells and FL5.12-BCL-2 cells in the presence of IL-3, and from FL5.12-BCL-2 cells following 24 hours of IL-3 deprivation. […] Mitochondrial pellets were subjected to chemical crosslinking as previously described (Letai et al., 2002).

SU-DHL8 = test: BH3 profiling, cytochrome c release from lymphoma mitochondria; type: biochemical; settings: SU-DHL-8
Excerpt: (§2) BH3 profiling allows for the prediction of response of cancer cells to anti-cancer therapeutics. For the purposes of this application, therapeutics can be divided into those that target anti-apoptotic BCL-2 proteins, and conventional agents. As a model test system, four lymphoma cell lines SU-DHL4, SU-DHL6, SU-DHL8, and SU-DHL 10 were employed. To perform BH3 profiling, the ability of a panel of sensitizer peptides to induce mitochondrial outer membrane permeabilization (MOMP) in mitochondria isolated from the lymphoma cells were tested. […] MOMP was measured by quantifying cytochrome c release by ELISA.

mouse liver mitochondria = test: Cytochrome c release from mouse liver mitochondria; type: biochemical; settings: no tBID, also at 10-fold higher concentrations
Method: as §1, with “systems). When results of multiple experiments were averaged, results from solvent-only (DMSO) treatments values were subtracted from each, so that 0 release reflects that observed in solvent-only treatments.” for “systems).”
To test if selective binding corresponded to ability of individual BH3 domains to selectively antagonize antiapoptotic function, a purified mitochondrial system was constructed in which the critical apoptosis decision making molecular machinery was reconstituted. […] The multidomain proapoptotic function was provided by the BAK which resides in mouse liver Mitochondria; mouse liver mitochondria contain no detectable BAX protein (Letai et al., 2002). The dominant antiapoptotic function was provided by one of the five different recombinant antiapoptotic proteins used in the binding assays. BH3 peptides provided the sensitizer function.
Furthermore, when the panel of sensitizer BH3 peptides was tested in the presence of the antiapoptotic protein BCL-XL, there was still no cytochrome c release, formally ruling out the possibility that the BH3 peptides were somehow directly converting antiapoptotic proteins to a proapoptotic function (FIG. 2). To induce MOMP and cytochrome c release, there appears to be an absolute requirement for an activator function, here provided by the tBID protein.

leukemic mitochondria = test: Cytochrome c release from BCL-2 dependent leukemia mitochondria; type: biochemical, mouse
Method: as §1, with “systems). When results of multiple experiments were averaged, results from solvent-only (DMSO) treatments values were subtracted from each, so that 0 release reflects that observed in solvent-only treatments.” for “systems).”
Leukemia prone mice were generated as previously described (Letai, 2004). Mouse experimental protocols conform to the relevant regulatory standards and were approved by the Dana-Farber Cancer Institute Animal Care and Use Committee.
Previous results have described a mouse acute lymphocytic leukemia model in which c-myc is constitutively expressed and human BCL-2 is repressibly expressed. In this model, when BCL-2 transgene expression is eliminated by administration of doxycycline, the leukemic cells undergo apoptosis, resulting in rapid resolution of the leukemia (Letai, 2004). This provides an ideal in vivo model of a BCL-2 dependent cancer. It was hypothesized that dependence on BCL-2 was due to a similar mechanism to that of the IL-3 deprived FL5.12-BCL-2 cells—that is, a death signal was being initiated and carried by an activator BH3 molecule, but BCL-2 was binding it and preventing its interaction with multidomain proapoptotic proteins.
Mitochondria were isolated from leukemia cells and exposed to sensitizer BH3 peptides. Subsequently, cytochrome c release was measured. As an internal control, mitochondria were isolated from liver from the leukemic mice in parallel (FIG. 8A).

CLL mitochondria = test: Cytochrome c release from CLL mitochondria; type: biochemical, human; settings: peptides or compounds 100 μM
Method: Alternatively, mitochondria were purified from freshly isolated CLL cells and cell lines by mechanical disruption followed by differential centrifugation, as previously described (Letai et al., 2002). Mitochondrial suspensions were made at 0.5 mg protein/ml, except for the case of ABT-737 and negative control enantiomer treatments, where 0.1 mg/ml was used. Release of cytochrome c was determined by a comparison of cytochrome c in the pellet and supernatant quantitated by ELISA (R&D systems).
CLL mitochondria were incubated with BH3 peptides as well as ABT-737 and negative control enantiomer (FIG. 14). […] This pattern is diagnostic of mitochondrial BCL-2 dependence. […] Since the BH3 peptides in the sensitizer panel lack the ability to directly activate BAX and BAK, these experiments also implicated the presence of an activator molecule constitutively sequestered by BCL-2 in CLL.

SU-DHL6 = test: BH3 profiling, cytochrome c release from lymphoma mitochondria; type: biochemical; settings: SU-DHL 6
Excerpt: as §2
SU-DHL4 and SU-DHL6 a “primed” phenotype, based on the sensitivity to sensitizer BH3 peptides. […] SU-DHL-10 responded poorly to both sensitizer and activator peptides, indicating the loss of the effector arm.

CLL cells = test: Annexin-V death assay of freshly isolated primary CLL cells; type: cell-based, human
Method: Cells were stained with fluorescent conjugates of Annexin-V (BioVision) and propidium iodide (PI) and analyzed on a FACSCalibur machine (Becton-Dickinson).
15 ml of blood in heparin treated tubes was obtained from each anonymous CLL patient and processed without freezing. Equal volume of media (RPMI medium, 10% […], supplemented with […] and 10 mg/ml transferrin) was mixed with each sample and CLL cells isolated by centrifugation through Ficoll-PAQUE Plus (Amersham). Cells were washed twice in media and cultured at a density of 2.0×10^6 cells/ml for up to 48 hours. Samples for FIG. 11A were obtained from 24 consecutive patients identified with WBC >50,000/μl. All guidelines and regulations were followed in accordance with IRB protocols #99-224 (Dana-Farber Cancer Institute). Normal PBMC's were obtained from tubing discarded following platelet donation by anonymous normal donors and processed as above, except cultured without insulin and transferrin.
Experimental replicates were performed using lysates or mitochondria from different CLL samples. In main body, where a P value is given, it was obtained by using a two-tailed Students t-test, and P<0.05 was considered statistically significant. GraphPad Prism software was used to determine EC50 values by non-linear dose-response curve fitting and to perform Mann-Whitney nonparametric testing in Table 5.
Freshly isolated primary CLL cells were incubated with ABT-737 or negative control enantiomer. After 48 hours, death was assessed using Annexin-V staining.

[2] = FL5.12-BCL-2 cells deprived of IL-3 for 24 hours, peptides 10 μM

CC[C@H](C)[C@H](NC(=O)[C@H](CC(N)=O)NC(=O)[C@H](CCCNC(=N)N)NC(=O)[C@@H](NC(=O)[C@@H](NC(=O)[C@H](CC(=O)O)NC(=O)[C@H](CCC(=O)O)NC(=O)CCCCCNC(=S)Nc1ccc2c(c1)C(=O)OC21c2ccc(O)cc2Oc2cc(O)ccc21)[C@@H](C)CC)[C@@H](C)CC)C(=O)N[C@@H](C)C(=O)N[C@@H](CCCNC(=N)N)C(=O)N[C@@H](Cc1c[nH]cn1)C(=O)N[C@@H](CC(C)C)C(=O)N[C@@H](C)C(=O)N[C@@H](CCC(N)=O)C(=O)N[C@H](C(=O)NCC(=O)N[C@@H](CC(=O)O)C(=O)N[C@@H](CO)C(=O)N[C@@H](CCSC)C(=O)N[C@@H](CC(=O)O)C(=O)N[C@@H](CCCNC(=N)N)C(=O)O)C(C)C [BID]
cytochrome c release [1, 2]: sensitivity to 10 μM BID BH3 is restored | cytochrome c release ([1]; FL5.12-BCL-2 cells with IL-3, peptides 10 μM): BCL-2 overexpression inhibits release | cytochrome c release ([1]; wt FL5.12 cells with IL-3, peptides 10 uM): potently induce cytochrome c release | mitochondrial sensitivity to BH3 peptide (SU-DHL8): responding strongly

CC[C@H](C)[C@H](NC(=O)[C@H](CS)NC(=O)[C@H](C)NC(=O)[C@H](CC(C)C)NC(=O)[C@H](CCCNC(=N)N)NC(=O)[C@H](CC(C)C)NC(=O)[C@H](C)NC(=O)[C@H](CC(C)C)NC(=O)[C@H](C)NC(=O)[C@H](CC(=O)O)NC(=O)[C@H](CO)NC(=O)CNC(=O)[C@H](CCC(=O)O)NC(=O)[C@H](CCSC)NC(=O)CCCCCNC(=S)Nc1ccc2c(c1)C(=O)OC21c2ccc(O)cc2Oc2cc(O)ccc21)C(=O)NCC(=O)N[C@@H](CC(=O)O)C(=O)N[C@@H](CCC(=O)O)C(=O)N[C@@H](CCSC)C(=O)N[C@@H](CC(=O)O)C(=O)N[C@H](C(=O)O)C(C)C [BIK]
cytochrome c release by peptide alone (mouse liver mitochondria): none of the sensitizer BH3 peptides by themselves can induce cytochrome c release significantly above background | cytochrome c release [1, 2]: does not induce cytochrome c release | cytochrome c release (leukemic mitochondria): capable of inducing near total cytochrome c release

CC[C@H](C)[C@H](NC(=O)[C@H](CC(C)C)NC(=O)[C@H](CCC(N)=O)NC(=O)[C@H](CC(C)C)NC(=O)[C@H](CCCCN)NC(=O)[C@H](CCCNC(=N)N)NC(=O)[C@H](C)NC(=O)[C@@H](NC(=O)[C@H](CCC(N)=O)NC(=O)[C@@H](NC(=O)[C@H](CCC(=O)O)NC(=O)[C@H](C)NC(=O)[C@H](CCC(N)=O)NC(=O)[C@H](Cc1c[nH]cn1)NC(=O)CCCCCNC(=S)Nc1ccc2c(c1)C(=O)OC21c2ccc(O)cc2Oc2cc(O)ccc21)C(C)C)[C@@H](C)CC)C(=O)N[C@@H](C)C(=O)N[C@@H](CC(=O)O)C(=O)N[C@@H](CCC(N)=O)C(=O)N[C@@H](Cc1ccccc1)C(=O)N[C@@H](Cc1c[nH]cn1)C(=O)N[C@@H](CCCNC(=N)N)C(=O)O [BMF]
cytochrome c release by peptide alone (mouse liver mitochondria): none of the sensitizer BH3 peptides by themselves can induce cytochrome c release significantly above background | cytochrome c release (leukemic mitochondria): capable of inducing near total cytochrome c release | cytochrome c release (CLL mitochondria): induce cytochrome c release | mitochondrial sensitivity to BH3 peptide (SU-DHL6): strong

CC(C)C[C@H](NC(=O)[C@H](C)NC(=O)[C@H](CCCCN)NC(=O)[C@H](CC(C)C)NC(=O)[C@H](CCCNC(=N)N)NC(=O)[C@H](C)NC(=O)[C@H](C)NC(=O)[C@@H](NC(=O)[C@H](CC(C)C)NC(=O)[C@H](CCC(N)=O)NC(=O)[C@H](C)NC(=O)[C@H](C)NC(=O)[C@H](CO)NC(=O)[C@H](CO)NC(=O)CCCCCNC(=S)Nc1ccc2c(c1)C(=O)OC21c2ccc(O)cc2Oc2cc(O)ccc21)[C@@H](C)O)C(=O)NCC(=O)N[C@@H](CC(=O)O)C(=O)N[C@@H](CCC(=O)O)C(=O)N[C@@H](CC(C)C)C(=O)N[C@@H](Cc1c[nH]cn1)C(=O)N[C@@H](CCC(N)=O)C(=O)O [HRK]
cytochrome c release by peptide alone (mouse liver mitochondria): none of the sensitizer BH3 peptides by themselves can induce cytochrome c release significantly above background | cytochrome c release (CLL mitochondria): do not

CN(C)CC[C@@H](CSc1ccccc1)Nc1ccc(S(=O)(=O)NC(=O)c2ccc(N3CCN(Cc4ccccc4-c4ccc(Cl)cc4)CC3)cc2)cc1[N+](=O)[O-] [NCE]
pEC50 (CLL cells; twenty-four CLL samples, 48 hours, read-out: mean EC50, apoptosis of CLL cells): 6.24

COC(=O)C[C@H](NC(=O)[C@H](C)NC(=O)[C@@H](NC(=O)OCc1ccccc1)C(C)C)C(=O)CF [ZVAD-fmk] (Cbz-Val-Ala-Asp(OMe)-CH2F)
protection against ABT-737-induced death (CLL cells; co-treatment, 200 μM): protects against ABT-737-induced death

BADmut: point mutant (L→A) of BAD BH3, LWAAQRYGREARRMSDEFEGSFKGL (SEQ ID NO: 13), negative control (Chemically synthesized primer)
cytochrome c release (CLL mitochondria): do not

BH3 domain peptide of BNIP3-a, VVEGEKEVEALKKSADWVSD (SEQ ID NO: 9) (not fully specified (N-terminus))
cytochrome c release by peptide alone (mouse liver mitochondria): none of the sensitizer BH3 peptides by themselves can induce cytochrome c release significantly above background | cytochrome c release (CLL mitochondria): do not

second BH3 domain peptide of murine NOXA, PADLKDECAQLRRIGDKVNL (SEQ ID NO: 7) (not fully specified (N-terminus)) [NOXA B]
cytochrome c release by peptide alone (mouse liver mitochondria): none of the sensitizer BH3 peptides by themselves can induce cytochrome c release significantly above background
